Measurements taken from PMC3640040, “Partial Agonism of Taurine at Gamma-Containing Native and Recombinant GABAA Receptors” (PLoS ONE, 2013).

Key:
α2β1 = target: T1, α2β1 (Mus musculus; Rattus norvegicus, UniProt P15431+P26048); experiment: two-electrode voltage clamp, Xenopus oocytes; assay type: cell-based; settings: read-out: Taurine / EC50
T1 construct: gene Gabra2; binary GABA-A receptor, mouse alpha2 + rat beta1; Xenopus oocytes
Excerpt: two-electrode voltage clamp, Xenopus oocytes on α2β1

α2β3γ2 = target: T2, α2β3γ2 (Mus musculus; Homo sapiens, UniProt P22723+P26048+P28472); experiment: two-electrode voltage clamp, Xenopus oocytes; assay type: cell-based; settings: read-out: Taurine / EC50
T2 construct: gene Gabra2; ternary GABA-A receptor, mouse alpha2 + human beta3 + mouse gamma2L; Xenopus oocytes, cRNA ratio 10:1:10; agonist site alpha/beta, zolpidem site alpha/gamma
T2 sequence (P22723 39-474, one chain of several): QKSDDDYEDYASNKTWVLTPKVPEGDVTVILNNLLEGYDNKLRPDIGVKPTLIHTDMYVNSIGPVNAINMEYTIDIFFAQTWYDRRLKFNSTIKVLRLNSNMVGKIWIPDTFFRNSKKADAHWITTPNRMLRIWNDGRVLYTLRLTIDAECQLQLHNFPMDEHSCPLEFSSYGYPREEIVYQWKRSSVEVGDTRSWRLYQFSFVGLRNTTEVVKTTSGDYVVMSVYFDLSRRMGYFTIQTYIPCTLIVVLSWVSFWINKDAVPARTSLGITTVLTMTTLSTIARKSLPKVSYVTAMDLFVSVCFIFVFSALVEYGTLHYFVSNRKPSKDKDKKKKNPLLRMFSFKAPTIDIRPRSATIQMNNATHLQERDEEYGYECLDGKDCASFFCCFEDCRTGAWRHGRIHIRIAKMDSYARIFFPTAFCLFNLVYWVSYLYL

α2β1γ2 = target: T3, α2β1γ2 (Rattus norvegicus; Mus musculus, UniProt P15431+P26048); experiment: two-electrode voltage clamp, Xenopus oocytes; assay type: cell-based; settings: read-out: Taurine / EC50
T3 construct: gene Gabra2; ternary GABA-A receptor, mouse alpha2 + rat beta1 + mouse gamma2L; Xenopus oocytes, cRNA ratio 10:1:10; with Gamma-aminobutyric acid receptor subunit gamma-2
T3 sequence (P26048 29-451 F77I): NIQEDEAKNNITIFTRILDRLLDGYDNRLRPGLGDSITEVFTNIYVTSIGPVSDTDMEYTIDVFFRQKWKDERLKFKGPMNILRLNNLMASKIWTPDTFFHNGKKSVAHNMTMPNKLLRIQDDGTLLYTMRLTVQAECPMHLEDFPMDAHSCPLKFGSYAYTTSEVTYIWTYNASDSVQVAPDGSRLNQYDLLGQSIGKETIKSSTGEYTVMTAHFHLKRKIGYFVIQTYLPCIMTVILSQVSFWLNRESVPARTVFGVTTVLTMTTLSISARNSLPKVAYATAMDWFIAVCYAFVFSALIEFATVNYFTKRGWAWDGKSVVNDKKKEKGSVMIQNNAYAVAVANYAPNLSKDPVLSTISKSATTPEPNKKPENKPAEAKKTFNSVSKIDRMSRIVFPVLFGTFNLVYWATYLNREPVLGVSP
T3 sequence (P15431 26-474): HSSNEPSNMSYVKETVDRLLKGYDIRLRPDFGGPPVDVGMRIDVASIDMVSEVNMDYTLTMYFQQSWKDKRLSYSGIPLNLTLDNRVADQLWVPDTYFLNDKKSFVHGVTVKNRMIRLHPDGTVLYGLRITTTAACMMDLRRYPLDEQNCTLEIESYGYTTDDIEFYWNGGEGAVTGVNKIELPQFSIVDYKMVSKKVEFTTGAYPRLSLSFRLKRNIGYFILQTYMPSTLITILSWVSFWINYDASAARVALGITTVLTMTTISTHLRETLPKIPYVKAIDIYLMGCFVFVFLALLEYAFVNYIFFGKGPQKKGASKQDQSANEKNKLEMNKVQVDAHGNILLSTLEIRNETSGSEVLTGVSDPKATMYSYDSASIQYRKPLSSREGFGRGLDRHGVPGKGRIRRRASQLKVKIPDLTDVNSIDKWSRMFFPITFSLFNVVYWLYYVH
T3 sequence (P22723 39-474 partner): as the sequence (P22723 39-474, one chain of several) above

α2β3 = target: T4, α2β3 (Mus musculus; Homo sapiens, UniProt P26048+P28472); experiment: two-electrode voltage clamp, Xenopus oocytes; assay type: cell-based; settings: read-out: Taurine / EC50
T4 construct: gene Gabra2; binary GABA-A receptor, mouse alpha2 + human beta3; Xenopus oocytes
T4 sequence (P26048 29-451): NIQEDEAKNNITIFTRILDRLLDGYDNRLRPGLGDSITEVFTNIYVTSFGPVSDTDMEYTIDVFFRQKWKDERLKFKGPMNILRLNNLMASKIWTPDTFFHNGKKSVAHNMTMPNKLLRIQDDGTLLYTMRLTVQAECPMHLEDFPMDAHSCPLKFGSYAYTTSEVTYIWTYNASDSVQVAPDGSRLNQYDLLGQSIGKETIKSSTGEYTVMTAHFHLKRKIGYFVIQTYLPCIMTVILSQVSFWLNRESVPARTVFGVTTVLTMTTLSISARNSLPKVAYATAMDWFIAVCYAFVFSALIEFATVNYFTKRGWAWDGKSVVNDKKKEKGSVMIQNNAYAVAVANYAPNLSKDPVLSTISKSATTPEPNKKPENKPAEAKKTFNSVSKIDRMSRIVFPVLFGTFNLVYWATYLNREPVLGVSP
T4 sequence (P28472 26-473): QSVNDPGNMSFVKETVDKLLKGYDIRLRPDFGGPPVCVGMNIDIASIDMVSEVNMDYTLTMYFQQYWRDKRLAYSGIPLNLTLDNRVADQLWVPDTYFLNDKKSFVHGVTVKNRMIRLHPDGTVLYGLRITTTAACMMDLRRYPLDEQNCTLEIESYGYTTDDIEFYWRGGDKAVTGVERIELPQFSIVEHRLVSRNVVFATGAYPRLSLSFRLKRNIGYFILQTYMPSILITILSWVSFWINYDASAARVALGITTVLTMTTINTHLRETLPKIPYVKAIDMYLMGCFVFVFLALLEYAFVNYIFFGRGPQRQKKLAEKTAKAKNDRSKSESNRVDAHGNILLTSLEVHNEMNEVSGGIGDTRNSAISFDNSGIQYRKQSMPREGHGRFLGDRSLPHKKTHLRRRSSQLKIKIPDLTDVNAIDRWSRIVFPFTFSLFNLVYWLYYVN

α2β3δ = target: T5, α2β3δ (Mus musculus; Homo sapiens, UniProt P26048+P28472); experiment: two-electrode voltage clamp, Xenopus oocytes; assay type: cell-based; settings: read-out: Taurine / EC50
T5 construct: gene Gabra2; ternary GABA-A receptor, mouse alpha2 + human beta3 + human delta; Xenopus oocytes, cRNA ratio 10:1:10; with Gamma-aminobutyric acid receptor subunit delta
T5 sequence (P26048 29-451): T4 sequence (P26048 29-451)
T5 sequence (P28472 26-473): T4 sequence (P28472 26-473)
T5 sequence (O14764 25-452 partner): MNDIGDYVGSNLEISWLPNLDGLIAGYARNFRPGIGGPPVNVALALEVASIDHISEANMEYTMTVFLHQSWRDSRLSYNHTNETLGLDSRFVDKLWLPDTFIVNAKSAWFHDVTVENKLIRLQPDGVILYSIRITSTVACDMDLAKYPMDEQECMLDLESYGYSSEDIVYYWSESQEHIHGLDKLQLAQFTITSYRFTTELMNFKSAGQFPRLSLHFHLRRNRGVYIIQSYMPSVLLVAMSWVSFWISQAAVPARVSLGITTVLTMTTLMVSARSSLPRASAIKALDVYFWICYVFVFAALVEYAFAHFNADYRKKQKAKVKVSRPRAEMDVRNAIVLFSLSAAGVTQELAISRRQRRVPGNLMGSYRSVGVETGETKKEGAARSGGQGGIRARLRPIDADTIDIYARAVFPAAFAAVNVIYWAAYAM

α2β1γ2 (δ74–79) = target: T6, α2β1γ2 (δ74–79) (Mus musculus; Rattus norvegicus, UniProt P15431+P26048); experiment: two-electrode voltage clamp, Xenopus oocytes; assay type: cell-based; settings: read-out: Taurine / EC50
T6 construct: gene Gabra2; mouse alpha2 + rat beta1 + mouse gamma2L with IDIFFA (74-79) replaced by delta motif MTVFLH; printed primers also encode T81S and Y83R, text names 74-79 only; Xenopus oocytes; with Gamma-aminobutyric acid receptor subunit gamma-2
T6 sequence (P15431 26-474, one chain of several): as the sequence (P15431 26-474) above
Excerpt: two-electrode voltage clamp, Xenopus oocytes on α2β1γ2 (δ74–79)

α2β1δ = target: T7, α2β1δ (Rattus norvegicus; Mus musculus; Homo sapiens, UniProt P15431+P26048); experiment: two-electrode voltage clamp, Xenopus oocytes; assay type: cell-based; settings: read-out: Taurine / EC50
T7 construct: gene Gabra2; ternary GABA-A receptor, mouse alpha2 + rat beta1 + human delta; Xenopus oocytes, cRNA ratio 10:1:10; with Gamma-aminobutyric acid receptor subunit delta
T7 sequence (P15431 26-474, one chain of several): as the sequence (P15431 26-474) above

α2β3γ2 (δ74–79) = target: T8, α2β3γ2 (δ74–79) (Mus musculus; Homo sapiens, UniProt P22723+P26048+P28472, P22723:A117H/P22723:D113T/P22723:F116L/P22723:I112M/P22723:I114V/P22723:T119S/P22723:Y121R); experiment: cell-based; settings: read-out: % of control GABA current at 1 μM
T8 construct: gene Gabra2
T8 sequence (P26048 29-451): T4 sequence (P26048 29-451)
T8 sequence (P28472 26-473): T4 sequence (P28472 26-473)
T8 sequence (P22723 39-474 I112M/D113T/I114V/F116L/A117H/T119S/Y121R): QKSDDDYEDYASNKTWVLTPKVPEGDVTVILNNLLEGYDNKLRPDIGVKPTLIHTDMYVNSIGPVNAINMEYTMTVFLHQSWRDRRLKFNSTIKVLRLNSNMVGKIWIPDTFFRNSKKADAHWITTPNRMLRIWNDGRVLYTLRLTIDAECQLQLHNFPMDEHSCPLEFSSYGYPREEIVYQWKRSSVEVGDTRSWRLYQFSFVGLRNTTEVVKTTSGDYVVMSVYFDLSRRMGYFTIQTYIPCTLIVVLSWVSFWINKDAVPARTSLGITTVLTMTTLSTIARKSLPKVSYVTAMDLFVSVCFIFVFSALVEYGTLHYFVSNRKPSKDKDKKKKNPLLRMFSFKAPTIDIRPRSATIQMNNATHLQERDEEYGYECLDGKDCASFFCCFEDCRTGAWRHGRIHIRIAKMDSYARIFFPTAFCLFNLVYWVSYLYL

T1 sequence (P15431 26-474, one chain of several): as the sequence (P15431 26-474) above

SMILES | EC50 (α2β1) | EC50 (α2β3γ2) | EC50 (α2β1γ2) | EC50 (α2β3) | EC50 (α2β3δ) | EC50 (α2β1γ2 (δ74–79)) | EC50 (α2β1δ) | remaining activity at 1 µM (α2β3γ2 (δ74–79))
NCCS(=O)(=O)O [taurine, 2-aminoethane sulfonic acid] | 81.8 ± 24.9 mM | 51.2 ± 19.8 mM | 76.1 ± 3.9 mM | 24.5 ± 11.2 mM | 35.4 ± 2 mM | 40.5 ± 6.9 mM | 67.8 ± 15.9 mM | 
Cc1ccc(-c2nc3ccc(C)cn3c2CC(=O)N(C)C)cc1 [zolpidem] |  |  |  |  |  |  |  | 97 ± 7%
